From ChEMBL document CHEMBL1921674, “Novel tricyclic inhibitors of IKK2: discovery and SAR leading to the identification of 2-methoxy-N-((6-(1-methyl-4-(methylamino)-1,6-dihydroimidazo[4,5-d]pyrrolo[2,3-b]pyridin-7-yl)pyridin-2-yl)methyl)acetamide (BMS-066)” (Bioorg Med Chem Lett, 2011) come the findings set out here.

One series relates to Blood. Nature of the series: Antiinflammatory activity in rat whole blood assessed as inhibition of LPS-induced TNFalpha release treated for 45 mins before LPS challenge measured after 6 hrs by ELISA. It is filed as functional, tissue-based.
Series [1] in a line: Cmax in mouse at 3 mg/kg, po. The series is classed as ADME, organism-based. As to conditions: in vivo. Set-up: dose 3 mg/kg, route oral.
The target in series [2] is T1, Proto-oncogene tyrosine-protein kinase receptor Ret (Homo sapiens, UniProt P07949). Nature of the series: Inhibition of RET at 10 uM.
T1 sequence (P07949 whole entry): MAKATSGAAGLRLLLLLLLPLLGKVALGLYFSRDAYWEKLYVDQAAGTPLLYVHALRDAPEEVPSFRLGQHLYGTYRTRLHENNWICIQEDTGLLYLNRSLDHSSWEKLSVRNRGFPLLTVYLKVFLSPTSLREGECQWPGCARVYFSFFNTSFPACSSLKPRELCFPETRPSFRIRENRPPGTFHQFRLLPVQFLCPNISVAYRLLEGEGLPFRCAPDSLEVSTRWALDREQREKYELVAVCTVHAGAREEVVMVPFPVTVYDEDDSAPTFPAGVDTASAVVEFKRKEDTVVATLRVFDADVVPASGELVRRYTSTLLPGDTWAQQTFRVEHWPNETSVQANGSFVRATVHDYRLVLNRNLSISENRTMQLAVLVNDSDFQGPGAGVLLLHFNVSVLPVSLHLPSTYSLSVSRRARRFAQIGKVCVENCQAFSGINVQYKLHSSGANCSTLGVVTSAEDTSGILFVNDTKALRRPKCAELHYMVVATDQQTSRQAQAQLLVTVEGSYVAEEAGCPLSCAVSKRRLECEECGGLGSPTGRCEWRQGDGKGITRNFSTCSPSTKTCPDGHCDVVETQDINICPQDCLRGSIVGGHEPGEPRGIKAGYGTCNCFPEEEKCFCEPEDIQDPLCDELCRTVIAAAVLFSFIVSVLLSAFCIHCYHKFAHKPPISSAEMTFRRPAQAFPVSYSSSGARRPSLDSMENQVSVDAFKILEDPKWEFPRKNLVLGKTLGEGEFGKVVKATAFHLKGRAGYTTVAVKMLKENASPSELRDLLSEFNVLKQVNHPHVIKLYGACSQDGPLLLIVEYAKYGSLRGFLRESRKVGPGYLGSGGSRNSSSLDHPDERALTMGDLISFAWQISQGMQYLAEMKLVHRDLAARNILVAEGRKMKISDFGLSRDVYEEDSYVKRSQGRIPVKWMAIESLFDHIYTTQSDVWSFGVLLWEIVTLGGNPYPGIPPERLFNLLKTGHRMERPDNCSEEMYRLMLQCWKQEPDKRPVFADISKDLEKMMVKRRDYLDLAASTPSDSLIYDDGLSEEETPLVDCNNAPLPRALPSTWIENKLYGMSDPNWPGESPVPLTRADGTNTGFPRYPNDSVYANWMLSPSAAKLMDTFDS
The test system of series [3] is Mus musculus. Nature of the series: Reduction in TNBS-induced colitis in intrarectally dosed mouse […] model assessed as decrease of body weight loss administered 1 day before TNBS challenge twice daily for 4 days. The series is classed as functional, organism-based.
The target in series [4] is Inhibitor of nuclear factor kappa-B kinase subunit alpha (Homo sapiens, UniProt O15111). As to the kind of experiment: Inhibition of IKK1.
Inhibitor of nuclear factor kappa-B kinase subunit alpha, sequence (O15111 whole entry): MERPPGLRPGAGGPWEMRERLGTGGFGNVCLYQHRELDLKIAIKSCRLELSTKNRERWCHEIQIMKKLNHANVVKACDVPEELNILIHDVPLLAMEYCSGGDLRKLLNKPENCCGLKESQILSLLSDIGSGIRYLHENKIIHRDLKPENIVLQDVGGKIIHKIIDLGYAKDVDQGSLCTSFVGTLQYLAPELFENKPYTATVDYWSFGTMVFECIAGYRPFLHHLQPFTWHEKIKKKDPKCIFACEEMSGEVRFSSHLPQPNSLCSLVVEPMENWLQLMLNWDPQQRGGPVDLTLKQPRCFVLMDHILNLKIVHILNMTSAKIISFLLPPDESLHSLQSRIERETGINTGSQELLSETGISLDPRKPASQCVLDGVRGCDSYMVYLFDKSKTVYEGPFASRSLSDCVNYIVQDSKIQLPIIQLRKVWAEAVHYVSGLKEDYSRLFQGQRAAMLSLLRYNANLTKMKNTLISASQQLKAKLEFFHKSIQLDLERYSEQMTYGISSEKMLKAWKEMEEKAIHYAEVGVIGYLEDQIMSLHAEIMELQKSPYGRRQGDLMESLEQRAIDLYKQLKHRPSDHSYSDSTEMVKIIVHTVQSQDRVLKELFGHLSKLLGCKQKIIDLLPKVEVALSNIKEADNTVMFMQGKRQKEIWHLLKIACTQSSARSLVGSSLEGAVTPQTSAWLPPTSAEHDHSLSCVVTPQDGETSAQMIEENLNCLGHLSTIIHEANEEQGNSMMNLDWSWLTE
In series [5] the target is T1, Proto-oncogene tyrosine-protein kinase receptor Ret. As to the kind of experiment: Inhibition of RET.
Series [6] is described as follows: AUC in Lewis rat at 10 mg/kg, po. The series is classed as ADME, organism-based. Set-up: dose 10 mg/kg, route oral. As to conditions: plasma.
In series [7] the target is Ephrin type-B receptor 1 (Homo sapiens) (UniProt P54762). Nature of the series: Inhibition of EphB1 at 10 uM.
Ephrin type-B receptor 1 (Homo sapiens), sequence (P54762 whole entry): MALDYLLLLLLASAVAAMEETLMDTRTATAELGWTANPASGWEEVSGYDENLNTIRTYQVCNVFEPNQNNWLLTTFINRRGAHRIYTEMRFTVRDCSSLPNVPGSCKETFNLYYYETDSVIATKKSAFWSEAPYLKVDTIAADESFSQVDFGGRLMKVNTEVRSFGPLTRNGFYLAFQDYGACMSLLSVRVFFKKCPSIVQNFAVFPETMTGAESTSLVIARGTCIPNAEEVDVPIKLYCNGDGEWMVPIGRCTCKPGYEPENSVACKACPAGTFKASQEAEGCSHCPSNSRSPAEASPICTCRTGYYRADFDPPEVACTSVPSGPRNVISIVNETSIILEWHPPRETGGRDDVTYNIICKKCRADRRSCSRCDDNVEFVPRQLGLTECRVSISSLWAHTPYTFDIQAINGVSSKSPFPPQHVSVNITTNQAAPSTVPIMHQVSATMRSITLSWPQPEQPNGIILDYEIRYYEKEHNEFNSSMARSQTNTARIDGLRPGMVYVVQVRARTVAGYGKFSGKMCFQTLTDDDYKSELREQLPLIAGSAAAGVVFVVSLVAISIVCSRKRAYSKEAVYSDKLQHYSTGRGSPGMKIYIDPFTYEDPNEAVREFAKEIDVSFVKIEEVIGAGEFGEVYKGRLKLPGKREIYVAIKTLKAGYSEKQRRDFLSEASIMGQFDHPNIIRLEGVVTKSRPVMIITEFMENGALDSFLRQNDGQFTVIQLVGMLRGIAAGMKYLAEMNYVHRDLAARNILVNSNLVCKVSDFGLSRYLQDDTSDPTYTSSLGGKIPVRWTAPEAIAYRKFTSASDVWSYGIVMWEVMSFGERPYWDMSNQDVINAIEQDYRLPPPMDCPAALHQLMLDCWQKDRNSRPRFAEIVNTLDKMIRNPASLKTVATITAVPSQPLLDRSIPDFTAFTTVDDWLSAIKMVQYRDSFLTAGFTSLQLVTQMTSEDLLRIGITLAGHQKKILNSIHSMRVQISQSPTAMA
For another series, the target named is Cytochrome P450 2C9 (Homo sapiens, UniProt P11712). As to the kind of experiment: Inhibition of CYP2C9. It is filed as ADME.
Cytochrome P450 2C9, sequence (P11712 whole entry): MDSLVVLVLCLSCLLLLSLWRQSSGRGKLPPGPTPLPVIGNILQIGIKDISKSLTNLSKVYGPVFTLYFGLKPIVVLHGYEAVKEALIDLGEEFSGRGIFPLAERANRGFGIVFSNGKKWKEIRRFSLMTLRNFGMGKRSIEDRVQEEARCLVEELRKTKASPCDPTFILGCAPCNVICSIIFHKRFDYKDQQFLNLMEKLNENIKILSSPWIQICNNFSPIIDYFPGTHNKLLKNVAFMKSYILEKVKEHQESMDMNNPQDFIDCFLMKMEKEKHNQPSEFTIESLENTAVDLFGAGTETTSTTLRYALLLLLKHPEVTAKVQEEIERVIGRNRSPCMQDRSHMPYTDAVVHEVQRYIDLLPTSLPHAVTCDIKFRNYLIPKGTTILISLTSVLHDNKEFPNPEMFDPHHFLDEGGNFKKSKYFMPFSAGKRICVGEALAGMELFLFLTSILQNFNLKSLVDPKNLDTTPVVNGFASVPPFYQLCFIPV
Series [8] can be described thus: Clearance in dog at 1 mg/kg, iv. It is filed as ADME, organism-based, Canis lupus familiaris. The note with it: in vivo. Set-up: dose 1 mg/kg, route intravenous.
A short description of series [9]: AUC in SJL mouse intestine at 8 mg/kg, iv after 8 hrs. The series is classed as ADME, organism-based. Set-up: time < 8 hr, dose 8 mg/kg, route intravenous.
For series [10], the system named is Mus musculus. As to the kind of experiment: Reduction in TNBS-induced colitis in intrarectally dosed mouse […] model assessed as decrease of colon length administered 1 day before TNBS challenge twice daily for 4 days. It is filed as functional, organism-based.
Series [11] deals with Protein-tyrosine kinase 6 (Homo sapiens, UniProt Q13882). As to the kind of experiment: Inhibition of BRK at 10 uM.
Protein-tyrosine kinase 6, sequence (Q13882 whole entry, looked up): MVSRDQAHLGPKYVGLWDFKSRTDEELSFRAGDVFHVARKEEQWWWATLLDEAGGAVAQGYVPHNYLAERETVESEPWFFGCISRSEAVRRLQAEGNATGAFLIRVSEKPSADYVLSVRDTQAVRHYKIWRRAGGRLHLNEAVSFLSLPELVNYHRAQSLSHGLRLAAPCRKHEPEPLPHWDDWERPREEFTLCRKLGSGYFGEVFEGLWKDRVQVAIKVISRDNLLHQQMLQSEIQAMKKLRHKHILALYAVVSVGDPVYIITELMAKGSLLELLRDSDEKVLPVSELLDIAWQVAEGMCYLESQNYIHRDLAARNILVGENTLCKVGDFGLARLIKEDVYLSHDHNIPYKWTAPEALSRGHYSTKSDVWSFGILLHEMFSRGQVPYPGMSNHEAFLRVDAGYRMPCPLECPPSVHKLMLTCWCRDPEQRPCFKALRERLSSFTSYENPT
Series [12] is described as follows: Cmax in dog at 5 mg/kg, po. The note with it: in vivo. Set-up: dose 5 mg/kg, route oral. The series is classed as ADME, organism-based, Canis lupus familiaris.
For series [13], the target named is Inhibitor of nuclear factor kappa-B kinase subunit beta (Homo sapiens) (UniProt O14920). As to the kind of experiment: Inhibition of human IKK2 at 10 uM.
The target in series [14] is Vascular endothelial growth factor receptor 3 (Homo sapiens, UniProt P35916). As to the kind of experiment: Inhibition of FLT4.
A further series concerns the target Ephrin type-A receptor 1 (Homo sapiens, UniProt P21709). Nature of the series: Inhibition of EPHA1.
A short description of series [15]: AUC in Sprague-Dawley rat intestine at 2 mg/kg, iv after 8 hrs. The series is classed as ADME, organism-based. Set-up: time < 8 hr, dose 2 mg/kg, route intravenous.
A short description of series [16]: Cmax in Lewis rat at 10 mg/kg, po. As to conditions: in vivo. Set-up: dose 10 mg/kg, route oral. The series is classed as ADME, organism-based.
Series [17] relates to Mus musculus. Nature of the series: Reduction in TNBS-induced colitis in mouse […] model assessed as decrease of colon length at 10 mg/kg, administered intrarectally 1 day before TNBS challenge twice daily for 4 days. Set-up: dose 10 mg/kg. It is filed as functional, organism-based.
Series [18] can be described thus: Dissociation constant, pKa of the compound. It is filed as physicochemical.

Calls of active or inactive are those of the source. The calls are words filed in the database; no cut-off is given here. A value given as a limit tells only on which side of the number the result lay.

Ephrin type-A receptor 1, sequence (P21709 whole entry): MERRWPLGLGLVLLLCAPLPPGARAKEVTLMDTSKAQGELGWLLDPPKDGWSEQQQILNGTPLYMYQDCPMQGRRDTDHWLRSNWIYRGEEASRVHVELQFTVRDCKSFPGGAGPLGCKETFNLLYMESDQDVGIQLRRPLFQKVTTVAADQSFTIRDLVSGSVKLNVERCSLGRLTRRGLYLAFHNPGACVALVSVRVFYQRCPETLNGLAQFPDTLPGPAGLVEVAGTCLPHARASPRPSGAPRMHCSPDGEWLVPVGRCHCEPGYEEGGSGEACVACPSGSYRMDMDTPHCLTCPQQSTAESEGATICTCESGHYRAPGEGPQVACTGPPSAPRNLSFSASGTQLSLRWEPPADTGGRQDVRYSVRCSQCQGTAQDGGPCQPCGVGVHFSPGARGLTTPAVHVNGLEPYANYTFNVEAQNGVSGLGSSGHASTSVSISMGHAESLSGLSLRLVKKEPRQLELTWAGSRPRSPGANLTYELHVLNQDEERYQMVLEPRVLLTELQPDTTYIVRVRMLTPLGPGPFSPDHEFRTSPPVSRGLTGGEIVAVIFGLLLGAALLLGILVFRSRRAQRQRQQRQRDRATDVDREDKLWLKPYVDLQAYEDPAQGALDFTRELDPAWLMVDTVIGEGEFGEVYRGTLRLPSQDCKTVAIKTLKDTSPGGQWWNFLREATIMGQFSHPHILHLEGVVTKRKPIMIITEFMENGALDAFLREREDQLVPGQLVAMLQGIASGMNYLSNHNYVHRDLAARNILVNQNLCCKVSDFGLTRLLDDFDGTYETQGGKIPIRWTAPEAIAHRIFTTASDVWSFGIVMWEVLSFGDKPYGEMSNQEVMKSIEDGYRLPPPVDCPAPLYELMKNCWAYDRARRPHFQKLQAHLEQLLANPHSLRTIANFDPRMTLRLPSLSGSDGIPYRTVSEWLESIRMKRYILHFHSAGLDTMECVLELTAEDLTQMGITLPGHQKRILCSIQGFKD

In the case of `CNc1nc2[nH]c(-c3cccc(CNC(=O)COC)n3)cc2c2c1ncn2C`, the IC50 in the series with Blood amounted to 1700 nM; in series [4] it was 4960 nM; in [5], 614 nM; against Cytochrome P450 2C9 it was 25000 nM; in series [14], 360 nM; on Ephrin type-A receptor 1, 686 nM. Further, the peak concentration (Cmax) in [1] worked out at 1.6 µM; in series [12], 10.3 µM; in series [16] it was 17.6 µM. Besides, the inhibition in [2], in series [7], in series [11] and in [13] was more than 75% in each case. The Activity entry with Mus musculus [3] and in the series with Mus musculus [10] was “Dose-dependent effect” throughout. This compound had an AUC in series [6] of 89 µM·h. The same compound registered a clearance in series [8] of 3.1 mL/min/kg. In addition, the values for the AUC at 8 h in series [9] and in [15] were 1170 µM·h and 156 µM·h, respectively. In addition, the result with Mus musculus [17] was Active. In series [18], this compound had a pKa of 2.5.
